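Test compounds were applied to cells in 96-well plates for 48 hours at 5 doses. TGI denotes the concentration required for complete inhibition of growth.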 Where a SMILES comes first, the peptide text is derived from it. The star is where a group is joined. Cbz = O=C(OCc1ccccc1)*
How the values were obtained:
Test in all cases: growth of human tumour cells (NCI), 48 h
SW-620 colon = tested on: SW-620 colon
T-47D breast = tested on: T-47D breast
MCF7 breast = tested on: MCF7 breast
CAKI-1 renal = tested on: CAKI-1 renal
U251 CNS = tested on: U251 CNS
HCT-116 colon = tested on: HCT-116 colon
SK-OV-3 ovarian = tested on: SK-OV-3 ovarian
NCI-H522 lung = tested on: NCI-H522 lung
DU-145 prostate = tested on: DU-145 prostate
A549 NSCLC = tested on: A549 NSCLC
HOP-62 NSCLC = tested on: HOP-62 NSCLC
M14 melanoma = tested on: M14 melanoma
HT29 colon = tested on: HT29 colon
RXF 393 renal = tested on: RXF 393 renal
HL-60(TB) leukemia = tested on: HL-60(TB) leukemia

| Structure (SMILES) | TGI (SW-620 colon) [µM] | TGI (T-47D breast) [µM] | TGI (MCF7 breast) [µM] | TGI (CAKI-1 renal) [µM] | TGI (U251 CNS) [µM] | TGI (HCT-116 colon) [µM] | TGI (SK-OV-3 ovarian) [µM] | TGI (NCI-H522 lung) [µM] | TGI (DU-145 prostate) [µM] | TGI (A549 NSCLC) [µM] | TGI (HOP-62 NSCLC) [µM] | TGI (M14 melanoma) [µM] | TGI (HT29 colon) [µM] | TGI (RXF 393 renal) [µM] | TGI (HL-60(TB) leukemia) [µM] |
| --- | --- | --- | --- | --- | --- | --- | --- | --- | --- | --- | --- | --- | --- | --- | --- |
| CN(C)CCCNc1ccc2nnn3c4ccc(OC(=O)c5ccc([N+](=O)[O-])cc5)cc4c(=O)c1c23 | 17 | 88.5 | > 38.9 | 7.59 | 33.9 | 32.7 | 26.7 | 24 | 18.3 | 20.6 | > 33.1 | 27 | 20.6 | 9.08 |  |
| Nc1cccc(C#Cc2cccc(C#Cc3cccc(N)n3)n2)n1 | > 100 | > 100 | > 100 | > 100 | > 100 | > 100 | > 100 | > 100 | > 100 |  | > 100 | > 100 |  | > 100 |  |
| O=C(NCC(C(=O)OCc1ccccc1)C(=O)OCc1ccccc1)OCc1ccccc1 | > 100 |  | > 100 | > 100 | > 100 |  | > 100 | > 100 | > 100 | > 100 | > 100 | > 100 | > 100 | > 100 |  |
| O=C1CCc2cc3c(cc21)CC1(Cc2cc4c(cc2C1)CCCC4)C3 | > 100 | > 100 | > 100 |  | > 100 | > 100 | > 100 | > 100 | > 100 | > 100 | > 100 | > 100 | > 100 | > 100 | > 100 |
| CC(C)(C)N(Cc1ccoc1)C(=O)/C=C\S(=O)c1ccccc1 (stereo not drawn) | 32 | 38.2 | 36.7 | 27.6 | 29.9 | 34.1 | 77.6 | 40.5 | 25.7 | > 100 | 36.6 | 40 | 97.7 |  | 47.5 |
| Clc1ccccc1-c1nnc2c(-c3ccccc3)nc3ccccc3n12 | > 100 | 69.2 | > 100 |  | > 100 | > 100 | > 100 |  | > 100 | > 100 | > 100 | > 100 | > 100 | > 100 | > 100 |
| O=C(n1c(=O)n(-c2ccc(Cl)cc2)c(=O)n1C(=O)C(Cl)(Cl)Cl)C(Cl)(Cl)Cl | > 100 | > 100 | > 100 | > 100 | > 100 | > 100 | > 100 | > 100 | > 100 | > 100 | > 100 |  | > 100 |  | > 100 |
| CN1CCN(CCCCN2c3ccccc3Sc3ccc(N=[N+]=[N-])cc32)CC1 | 6.85 | 36.2 | 9.75 | 22.1 | 16.9 | 13.7 |  | 13.6 | 26.6 | 29.3 | 33.8 | 3.83 | 4.59 | 19.1 | 3.69 |
| CC1=NN(C(=O)c2ccccc2O)C(c2ccccc2Cl)C1C(=O)Nc1ccccc1 (stereo not drawn) | > 100 | > 100 | > 100 | > 100 | > 100 |  | > 100 | 0.692 | > 43.5 | > 100 | > 100 | 33.1 | > 100 | > 100 | 7.24 |
| O=C(CN1CCOCC1)Nc1ccc2c(c1)C1Oc3ccccc3CC1CO2 (stereo not drawn) | > 100 | > 100 | > 100 | > 100 | > 100 | > 100 | > 100 | > 100 | > 100 | > 100 | > 100 | > 100 | > 100 |  |  |
| COC(=O)CC1(O)C(/C=C/c2ccccc2)C(C(=O)OC)C(=O)C(C(=O)OC)C1C(=O)OC (stereo not drawn) | > 100 |  | > 100 | > 100 | > 100 | > 100 | > 100 | > 100 | > 100 | > 100 | > 100 | > 100 | > 100 | > 100 | > 100 |
| [C-]#[N+]C1(C(=O)OCC)CC1 | > 100 | > 100 | > 100 |  | > 100 | > 100 |  | > 100 | > 100 | > 100 | > 100 | > 100 | > 100 | > 100 | > 100 |
| COc1ccc([C@H](NC(=O)c2ccccc2)[C@@H](O)C(=O)O[C@H]2C[C@@]3(O)C(OC(=O)c4ccccc4)C4[C@](C)(C(=O)[C@H](OC(C)=O)C(=C2C)C3(C)C)[C@@H](O)C[C@H]2OC[C@@]42OC(C)=O)cc1 (stereo partly drawn) | > 10 | > 10 | > 10 | > 10 |  |  |  |  | 0.00657 | > 10 |  | > 10 | 0.0656 | > 10 | 0.0279 |
| O=CC1C[C@@H](N2C(=O)O[C@@H](c3ccccc3)[C@H]2c2ccccc2)[C@@H]1COCc1ccccc1 (stereo partly drawn) | 77.1 |  | 55.1 | > 100 | 30.1 | 32.8 |  | 34 | 35.7 | > 100 | 44.5 | 34.2 | 37.8 | 46.3 | 56.7 |
| CC(C)c1ccc2[nH]c(O)c(C3=Nc4ccccc4C3=O)c2c1 | > 100 | 17.2 | 1.3 | > 100 | 41.4 | 68 | 30.2 | 97 | 94.5 | > 100 | 21 | > 100 | > 100 | 6.71 |  |
| COc1ccc2c(c1)N=C1CSC(c3c(Cl)cccc3[N+](=O)[O-])N1C2 (stereo not drawn) | > 100 | > 100 | > 100 | > 100 | > 100 | > 100 | > 100 | > 100 |  | > 100 | > 100 | > 100 | > 100 | > 100 | 79.3 |

| Structure (SMILES) | TGI (SW-620 colon) [µM] | TGI (T-47D breast) [µM] | TGI (MCF7 breast) [µM] | TGI (CAKI-1 renal) [µM] | TGI (U251 CNS) [µM] | TGI (HCT-116 colon) [µM] | TGI (SK-OV-3 ovarian) [µM] | TGI (NCI-H522 lung) [µM] | TGI (DU-145 prostate) [µM] | TGI (A549 NSCLC) [µM] | TGI (HOP-62 NSCLC) [µM] | TGI (M14 melanoma) [µM] | TGI (HT29 colon) [µM] | TGI (RXF 393 renal) [µM] | TGI (HL-60(TB) leukemia) [µM] |
| --- | --- | --- | --- | --- | --- | --- | --- | --- | --- | --- | --- | --- | --- | --- | --- |
| O=C1c2ccccc2-c2c1c(-c1ccccc1)c1n2C2(C(=O)c3ccccc3C2=O)C2C(=O)N(c3ccccc3)C(=O)C12 (stereo not drawn) | > 100 | 65.7 | 73.4 | > 100 | > 100 | 37.8 | > 100 | 33.6 | > 100 | > 100 | 63.7 | > 100 | 41.6 | 41.5 |  |
| CC[N+]1(C)CCC(O)(/C=C/c2ccc(Cl)cc2)C(C(=O)/C=C/c2ccc(Cl)cc2)C1 (stereo not drawn) |  | 77.4 | > 36.6 | 3.71 | 20.8 | 29.1 | 36.8 |  | 27.6 | 43 | 39.3 | > 38 | 14.1 | 25.4 | 4.87 |
| CCOC(=O)c1nc2ccccc2nc1Oc1ccc(OC)cc1 | > 100 | > 100 | > 100 |  | > 100 | > 100 | > 100 | > 100 | > 100 | > 100 | > 100 | > 100 | > 100 | > 100 | > 100 |
| CC(=O)OC[C@@H](OC(C)=O)[C@@H](OC(C)=O)[C@H]1OC[C@@H]2C[C@H]([C@H]1OC(C)=O)N(Cc1ccccc1)O2 | > 100 | > 100 | > 100 | > 100 | > 100 | > 100 | > 100 |  | > 100 | > 100 | > 100 | > 100 | > 100 | > 100 | > 100 |
| Clc1ccc(-c2nnc(C34CC5CC(CC(C5)C3)C4)o2)cc1 | > 100 | > 100 |  | > 100 | > 100 | > 100 | > 100 | > 100 | > 100 | > 100 | > 100 | > 100 | > 100 | > 100 | > 100 |
| COc1cc(C2(O)c3ccccc3C3=NCCN32)cc(OC)c1OC (stereo not drawn) | > 100 | > 100 |  | > 100 | > 100 | > 100 | > 100 |  | > 100 | > 100 | > 100 |  | > 100 |  | > 100 |
| NS(=O)(=O)c1nnc(/N=C(/CCC(=O)O)C(=O)O)s1 | > 100 | > 100 | > 100 | > 100 | > 100 | > 100 | > 100 | > 100 | > 100 | > 100 | > 100 | > 100 | > 100 |  | > 100 |
| CCN(CC)CCC(=O)c1ccc(Oc2ccccc2)cc1 | 31.3 | 42 | 38.5 | 30.7 | 32.3 | 36.1 | > 100 |  | 71.2 | > 100 | 77.4 | > 100 | 38.3 | 36.4 |  |
| O=[N+]([O-])/C=C/COCc1cc2c(cc1Br)OCO2 | 39.4 | 41.6 | 33.5 | 35.6 | 30.7 | 34.1 | > 100 | 50.7 | 35.5 | 38.5 | 41.9 | 29.9 | 45.4 | 30.9 |  |
| C/C(=N\NC(=S)NNC(=S)N(C)c1ccccc1)c1ccccn1 | > 100 | 72.8 | > 100 | 8.39 | > 100 | > 100 | > 83.8 |  | > 100 | > 100 | > 100 | 2.56 | > 100 | 17 |  |
| CCN1C[C@]2(C)CC[C@H](OCc3ccccc3)C34C5C[C@@H]6CC[C@](O)(C(C[C@@H]32)C14)C5[C@H]6OCc1ccccc1 (stereo partly drawn) | > 100 | > 100 | > 100 |  | > 100 | > 100 | > 100 |  | > 100 | > 100 | > 100 | > 100 | > 100 | > 100 |  |
| COc1cc(C2c3cc4c(cc3OC(NCc3ccccc3)C2C)OCO4)cc(OC)c1OC (stereo not drawn) | > 36 |  | 48.7 | 0.982 | 21.2 |  | > 35.3 | 4.02 | > 100 | > 94 | > 64 | 67.1 | 3.32 |  | 0.699 |
| CCOC(=O)C(CC(=O)OC)NC(=O)C(CC(=O)OC)NC(=O)C(CC(=O)OC)NC(=O)C(CC(=O)OC)NC(=O)OCc1ccccc1 (stereo not drawn) (Cbz-D(OMe)D(OMe)D(OMe)D(OMe)-OEt; configuration not given here) | > 100 | > 100 | > 100 |  | > 100 | > 100 |  |  |  | > 100 | > 100 | > 100 | > 100 | > 100 | > 100 |
| CN(C)/C=C/c1ccncc1 | > 100 | > 100 | > 100 | > 100 | > 100 | > 100 | > 100 | > 100 | > 100 | > 100 | > 100 | > 100 | > 100 | > 100 |  |
| O=C(Cc1ccccc1)NNc1nc(NNC(=O)c2ccncc2)nc(Nc2ccc(Cl)cc2)n1 | > 10 | > 10 | > 10 | > 10 | > 10 |  | > 10 |  | > 10 | > 10 | > 10 | > 10 |  |  | > 10 |
| CSC(=S)OC1C(CO[Si](C)(C)C(C)(C)C)OC2OC(C)(C)OC21 (stereo not drawn) | 31.9 |  | 29.8 | > 100 | 31.8 | 36.6 | 41.5 | 31.3 | > 100 | 78.6 | 34.4 | > 100 | 24.7 | 37.5 |  |

— PubChem BioAssay (NCI)
